# Measurements published in PMC5618632, “In Vitro Glucuronidation of Wushanicaritin by Liver Microsomes, Intestine Microsomes and Expressed Human UDP-Glucuronosyltransferase Enzymes” (International Journal of Molecular Sciences, 2017).
# Where “and” joins values, the source holds several entries; their conditions need not be identical. Identical values can stand only once.
# T1: UGT2B7 (Homo sapiens, UniProt P16662)
# T1 sequence (P16662 24-529): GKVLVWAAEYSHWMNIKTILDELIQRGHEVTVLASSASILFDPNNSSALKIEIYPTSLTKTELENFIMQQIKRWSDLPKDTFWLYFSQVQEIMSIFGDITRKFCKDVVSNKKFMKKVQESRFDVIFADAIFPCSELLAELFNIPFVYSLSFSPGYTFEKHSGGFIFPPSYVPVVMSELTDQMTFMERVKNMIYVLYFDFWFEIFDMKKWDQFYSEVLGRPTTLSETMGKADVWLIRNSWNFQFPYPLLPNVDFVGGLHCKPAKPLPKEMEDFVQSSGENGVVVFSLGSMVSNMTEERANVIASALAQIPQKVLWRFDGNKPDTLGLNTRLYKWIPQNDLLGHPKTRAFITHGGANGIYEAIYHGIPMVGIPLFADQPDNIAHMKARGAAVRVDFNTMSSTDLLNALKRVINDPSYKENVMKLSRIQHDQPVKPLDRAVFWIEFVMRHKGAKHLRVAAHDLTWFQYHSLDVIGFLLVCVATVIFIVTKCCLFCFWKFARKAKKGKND
# T2: expressed human UGT1A1 (Homo sapiens, UniProt P22309)
# T2 sequence (P22309 26-533): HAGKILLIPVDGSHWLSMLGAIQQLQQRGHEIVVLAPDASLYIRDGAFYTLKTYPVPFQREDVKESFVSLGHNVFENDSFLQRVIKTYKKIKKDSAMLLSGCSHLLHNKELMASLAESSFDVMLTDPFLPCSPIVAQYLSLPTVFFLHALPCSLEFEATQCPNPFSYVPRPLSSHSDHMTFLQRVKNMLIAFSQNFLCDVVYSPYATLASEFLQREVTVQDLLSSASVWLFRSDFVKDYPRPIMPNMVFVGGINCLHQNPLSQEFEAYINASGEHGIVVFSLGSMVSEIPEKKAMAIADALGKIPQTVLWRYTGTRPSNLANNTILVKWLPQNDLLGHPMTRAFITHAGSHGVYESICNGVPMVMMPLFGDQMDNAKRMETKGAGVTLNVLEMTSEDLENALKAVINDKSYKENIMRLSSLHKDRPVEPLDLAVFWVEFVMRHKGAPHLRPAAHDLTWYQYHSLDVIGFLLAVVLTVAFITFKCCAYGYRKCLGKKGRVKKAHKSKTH
# Columns and labels:
# UGT2B7 = target: T1, UGT2B7; test: Glucuronidation by expressed UGT2B7
# Experimental: (§1) The reaction was terminated by adding ice-cold acetonitrile. […] All experiments were performed in triplicate.
# (§2) The gradient elution program was the same as the UPLC condition of the structural identification of wushanicaritin glucuronides above. The detection wavelength was set at 270 nm, and the injection volume was 8 µL.
# (§3) The parameter were as follow. V is the formation rate of the product. Vmax is the maximal velocity. […] Ksi is the substrate inhibition constant. […] (1) V=Vmax ×[S]/Km+[S] (2) V=Vmax ×[S]/Km + [S](1+[S]/Ksi)
# (§4) The contribution of individual expressed UGT enzymes to wushanicaritin glucuronidation in HLM was evaluated by the relative activity factor (RAF) approach as described in previous studies. The relative activity factor was defined as the activity ratio of HLM to an expressed UGT enzyme (Supersome) toward a probe substrate for this enzyme using Equation (3). The relative amount of wushanicaritin glucuronidation in HLM attributed to an expressed UGT enzyme was estimated by multiplying the glucuronidation activity (i.e., the intrinsic clearance) derived with this enzyme by the corresponding RAF. […] The contributions of individual UGT enzyme were calculated according to Equation (4). (3) RAF=CLint{probe,pHLM}/CLint{probe,Supersome} (4) Contribution of UGTs=CLint(wushanica ritin,UGTs)/CLint(wushanica ritin,pHLM)×RAF
# [1] = Glucuronidation by pooled human liver microsomes (HLM), UDPGA-supplemented; assay type: in vitro ADME
# Experimental: as §1, §3
# [2] = Glucuronidation by guinea pig liver microsomes (GpLM); assay type: in vitro ADME; conditions: for Km: guinea pig, liver microsomes, read-out: Km or S50
# Experimental: as §1, §3
# [3] = parameters: method as in PMID 21968061; conditions: DPPH radical scavenging (antioxidant activity); cited from earlier work
# [4] = human, pH 7.4
# Experimental: Wushanicaritin was incubated with HLM, HIM and expressed UGTs enzymes to determine the rates of glucuronidation as published previously [12, 23, 31]. Briefly, the incubation mixture mainly contained 50 mM Tris-hydrochloric acid buffer (pH 7.4), 0.88 mM MgCl2, 22 µg/mL alamethicin, 4.4 mM saccharolactone and 3.5 mM UDPGA [32]. The reaction was terminated by adding ice-cold acetonitrile. The samples were vortexed and centrifuged at 13,800× g for 10 min. The supernatant was subjected to UPLC/Q-TOF-MS (Waters Corporation, Manchester, UK) analysis. […] Similarly, wushanicaritin was incubated with DLM, RLM, MkLM, RaLM and GpLM in the same way as for HLM. All experiments were performed in triplicate. Preliminary experiments were performed to ensure that the rates of glucuronidation were determined under linear conditions with respect to the incubation time and protein concentration.
# Serial concentrations of wushanicaritin (0.156–20 µM) were incubated with HLM, HIM and expressed UGTs enzymes to determine wushanicaritin glucuronidation rates. […] Appropriate models were selected by visual inspection of the Eadie–Hofstee plot [34]. Model fitting and parameter estimation were performed by GraphPad Prism V5 software (GraphPad Software, Inc., San Diego, CA, USA).
# V is the formation rate of the product. Vmax is the maximal velocity. Km is the Michaelis constant, and [S] is the substrate. […]
# [5] = Glucuronidation by human intestine microsomes (HIM); assay type: in vitro ADME; conditions: for Km: human, intestine microsomes, read-out: Km or S50
# Experimental: as §1, §3
# [6] = Glucuronidation by rabbit liver microsomes (RaLM); assay type: in vitro ADME; conditions: for Km: rabbit, liver microsomes, read-out: Km or S50
# Experimental: as §1, §3
# expressed human UGT1A1 = target: T2, expressed human UGT1A1; test: Glucuronidation by expressed UGT1A1; conditions: substrate inhibition constant; formation of G1 (3-O-glucuronide); UGT1A1
# Experimental: as §1, §2, §3, §4
# [7] = Glucuronidation by monkey liver microsomes (MkLM); assay type: in vitro ADME; conditions: for Km: monkey, liver microsomes, read-out: Km or S50; for Ki: substrate inhibition constant
# Experimental: as §1, §3
# [8] = Glucuronidation by dog liver microsomes (DLM); assay type: in vitro ADME; conditions: for Km: dog, liver microsomes, read-out: Km or S50; for Ki: substrate inhibition constant
# Experimental: as §1, §3
# [9] = Glucuronidation by rat liver microsomes (RLM); assay type: in vitro ADME; conditions: for Km: rat, liver microsomes, read-out: Km or S50; for Ki: substrate inhibition constant
# Experimental: as §1, §3
# not read [10] = substrate: CC(C)c1cccc(C(C)C)c1O; test: not read; conditions: other: probe substrate glucuronidation; UGT1A9; pH 7.4
# not read [11] = substrate: COc1ccc(-c2oc3c(CCC(C)(C)O)c(O)cc(O)c3c(=O)c2O)cc1; test: not read; conditions: UGT1A9, pH 7.4
# Experimental: Briefly, the incubation mixture mainly contained 50 mM Tris-hydrochloric acid buffer (pH 7.4), 0.88 mM MgCl2, 22 µg/mL alamethicin, 4.4 mM saccharolactone and 3.5 mM UDPGA [32]. The reaction was terminated by adding ice-cold acetonitrile. […] The supernatant was subjected to UPLC/Q-TOF-MS (Waters Corporation, Manchester, UK) analysis. […] All experiments were performed in triplicate. Preliminary experiments were performed to ensure that the rates of glucuronidation were determined under linear conditions with respect to the incubation time and protein concentration.
# Appropriate models were selected by visual inspection of the Eadie–Hofstee plot [34]. Model fitting and parameter estimation were performed by GraphPad Prism V5 software (GraphPad Software, Inc., San Diego, CA, USA).
# V is the formation rate of the product. Vmax is the maximal velocity. Km is the Michaelis constant, and [S] is the substrate. Ksi is the substrate inhibition constant. The intrinsic clearance (CLint) was derived by Vmax/Km for the Michaelis–Menten and substrate inhibition models [12]. (1) V=Vmax ×[S]/Km+[S] (2) V=Vmax ×[S]/Km + [S](1+[S]/Ksi)
# The contribution of individual expressed UGT enzymes to wushanicaritin glucuronidation in HLM was evaluated by the relative activity factor (RAF) approach as described in previous studies [2, 12]. The relative activity factor was defined as the activity ratio of HLM to an expressed UGT enzyme (Supersome) toward a probe substrate for this enzyme using Equation (3). The relative amount of wushanicaritin glucuronidation in HLM attributed to an expressed UGT enzyme was estimated by multiplying the glucuronidation activity (i.e., the intrinsic clearance) derived with this enzyme by the corresponding RAF. […] The contributions of individual UGT enzyme were calculated according to Equation (4). (3) RAF=CLint{probe,pHLM}/CLint{probe,Supersome} (4) Contribution of UGTs=CLint(wushanica ritin,UGTs)/CLint(wushanica ritin,pHLM)×RAF
# [12] = formation of G1 (3-O-glucuronide)
# [13] = formation of G2 (7-O-glucuronide)
# [14] = pH 7.4, formation of G1 (3-O-glucuronide)
# [15] = pH 7.4, formation of G2 (7-O-glucuronide)
# [16] = other: formation of G1 (3-O-glucuronide)
# [17] = other: formation of G2 (7-O-glucuronide)
molecule,measurement,setting,value
"Cc1cn([C@H]2C[C@H](N=[N+]=[N-])[C@@H](CO)O2)c(=O)[nH]c1=O [AZT, zidovudine, reference compound]",Km,UGT2B7,1600 ± 121 µM
same,microsomal CLint,UGT2B7; expressed UGT2B7 (Supersome),0.26 ± 0.02 µL/min/mg
same,microsomal CLint,"[1]; human, pooled liver microsomes, probe substrate glucuronidation",0.27 ± 0.02 µL/min/mg
same,Km,"[1]; human, pooled liver microsomes, probe substrate glucuronidation, read-out: Km",4360 ± 341 µM
same,Vmax,[1]; probe substrate glucuronidation,1.18 ± 0.53 nmol/min/mg
COc1ccc(-c2oc3c(CCC(C)(C)O)c(O)cc(O)c3c(=O)c2O)cc1 [wushanicaritin],Vmax,[2]; [12],0.05 ± 0.002 nmol/min/mg
same,Vmax,[2]; [13],1.43 ± 0.06 nmol/min/mg
same,Km,[2]; [14],2.53 ± 0.3 µM
same,Km,[2]; [15],0.93 ± 0.06 µM
same,IC50,[3],35.3 µM
same,species difference in hepatic glucuronidation,"[4]; dog, rat, monkey, rabbit, guinea pig",up to 60.0 fold
same,"variability of kinetic parameters, rat versus humans",[4],≤ 2.5 fold
same,Vmax,[5]; [12],0.74 nmol/min/mg and 0.74 ± 0.05 nmol/min/mg
same,Vmax,[5]; [13],1.34 nmol/min/mg and 1.34 ± 0.10 nmol/min/mg
same,Km,[5]; [14],4.24 ± 0.75 µM
same,Km,[5]; [15],5.91 ± 1.1 µM
same,Vmax,[6]; [12],0.11 ± 0.004 nmol/min/mg
same,Vmax,[6]; [13],0.56 ± 0.02 nmol/min/mg
same,Km,[6]; [14],2.22 ± 0.26 µM
same,Km,[6]; [15],3.29 ± 0.39 µM
same,Vmax,[1]; [12],1.34 nmol/min/mg and 1.34 ± 0.08 nmol/min/mg
same,Vmax,[1]; [13],0.35 nmol/min/mg and 0.35 ± 0.01 nmol/min/mg
same,Km,"[1]; human, pooled liver microsomes, pH 7.4, formation of G1 (3-O-glucuronide), read-out: Km or S50",1.07 ± 0.13 µM
same,Km,"[1]; human, pooled liver microsomes, pH 7.4, formation of G2 (7-O-glucuronide), read-out: Km or S50",0.5 ± 0.08 µM
same,Ki,"[1]; substrate inhibition constant, formation of G1 (3-O-glucuronide)",32.99 µM and 32.990 ± 6.717 µM
same,Ki,expressed human UGT1A1,17.150 ± 4.478 µM
same,Vmax,[7]; [12],0.22 ± 0.02 nmol/min/mg
same,Vmax,[7]; [13],0.21 ± 0.008 nmol/min/mg
same,Km,[7]; [14],1.58 ± 0.25 µM
same,Km,[7]; [15],0.94 ± 0.08 µM
same,Ki,[7]; [12],11.57 ± 2.15 µM
same,Ki,[7]; [13],36.23 ± 5.13 µM
same,Km,[8]; [14],1.11 ± 0.16 µM
same,Km,[8]; [15],1.17 ± 0.13 µM
same,Vmax,[8]; [12],0.19 ± 0.01 nmol/min/mg
same,Vmax,[8]; [13],0.32 ± 0.02 nmol/min/mg
same,Ki,[8]; [12],29.09 ± 6.58 µM
same,Ki,[8]; [13],44.14 ± 9.09 µM
same,Vmax,[9]; [12],0.34 ± 0.01 nmol/min/mg
same,Vmax,[9]; [13],0.37 ± 0.009 nmol/min/mg
same,Km,[9]; [14],0.66 ± 0.06 µM
same,Km,[9]; [15],0.45 ± 0.03 µM
same,Ki,[9]; [12],37.11 ± 5.82 µM
same,Ki,[9]; [13],44.22 ± 5.42 µM
expressed human UGT1A9 (Homo sapiens) (protein) GKLLVVPMDGSHWFTMRSVVEKLILRGHEVVVVMPEVSWQLGRSLNCTVKTYSTSYTLEDLDREFKAFAHAQWKAQVRSIYSLLMGSYNDIFDLFFSNCRSLFKDKKLVEYLKESSFDAVFLDPFDNCGLIVAKYFSLPSVVFARGILCHYLEEGAQCPAPLSYVPRILLGFSDAMTFKERVRNHIMHLEEHLLCHRFFKNALEIASEILQTPVTEYDLYSHTSIWLLRTDFVLDYPKPVMPNMIFIGGINCHQGKPLPMEFEAYINASGEHGIVVFSLGSMVSEIPEKKAMAIADALGKIPQTVLWRYTGTRPSNLANNTILVKWLPQNDLLGHPMTRAFITHAGSHGVYESICNGVPMVMMPLFGDQMDNAKRMETKGAGVTLNVLEMTSEDLENALKAVINDKSYKENIMRLSSLHKDRPVEPLDLAVFWVEFVMRHKGAPHLRPAAHDLTWYQYHSLDVIGFLLAVVLTVAFITFKCCAYGYRKCLGKKGRVKKAHKSKTH,Km,not read [10],45.91 ± 5.91 µM
same,K0.5,not read [11]; [16],0.32 ± 0.03 µM
same,Vmax,not read [11]; [16],8e-05 µmol/min/mg
same,Vmax/Km,not read [11]; [16],240 µL/min/mg
same,K0.5,not read [11]; [17],0.39 ± 0.06 µM
same,Vmax,not read [11]; [17],0.00011 µmol/min/mg
same,Vmax/Km,not read [11]; [17],270 µL/min/mg
